Measured values as given in ChEMBL document CHEMBL1201862, “PubChem BioAssay data set” (2004).
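Five concentrations, 48 hours, 96-well plates. GI50 is the concentration that inhibits growth by half.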 The source made the active and inactive calls. Rule as the data show it: active = GI50 up to about 1.1 µM and inactive = higher.

How the values were obtained:
Assay in all cases: NCI tumour cell line growth inhibition, 48 h
SK-MEL-2 = system: SK-MEL-2
SF-539 = system: SF-539
U-251 = system: U-251
HL-60 = system: HL-60
COLO 205 = system: COLO 205
HCT-116 = system: HCT-116
HOP-62 = system: HOP-62
SW-620 = system: SW-620
SNB-78 = system: SNB-78
NCI-H226 = system: NCI-H226
RXF 393 = system: RXF 393
SF-295 = system: SF-295
UACC-257 = system: UACC-257
OVCAR-8 = system: OVCAR-8
M19-MEL = system: M19-MEL
SR = system: SR
MDA-N = system: MDA-N
DU-145 = system: DU-145
PC-3 = system: PC-3
MDA-MB-435 = system: MDA-MB-435

SMILES | GI50 (SK-MEL-2) | GI50 (SF-539) | GI50 (U-251) | GI50 (HL-60) | GI50 (COLO 205) | GI50 (HCT-116) | GI50 (HOP-62) | GI50 (SW-620) | GI50 (SNB-78) | GI50 (NCI-H226) | GI50 (RXF 393) | GI50 (SF-295) | GI50 (UACC-257) | GI50 (OVCAR-8) | GI50 (M19-MEL) | GI50 (SR) | GI50 (MDA-N) | GI50 (DU-145) | GI50 (PC-3) | GI50 (MDA-MB-435)
Cc1nc2cc3nc4ccccc4c(O)c3cc2s1 | > 100 µM (inactive) | > 100 µM (inactive) | > 100 µM (inactive) | > 100 µM (inactive) | > 100 µM (inactive) | > 100 µM (inactive) | > 100 µM (inactive) | > 100 µM (inactive) | > 100 µM (inactive) | > 100 µM (inactive) | > 100 µM (inactive) | > 100 µM (inactive) | > 100 µM (inactive) | > 100 µM (inactive) | > 100 µM (inactive) | > 100 µM (inactive) | – | – | – | –
CC(=O)/C(=C\C1=CCCO1)C(=O)Nc1ccccc1C | > 100 µM (inactive) | > 100 µM (inactive) | > 100 µM (inactive) | > 100 µM (inactive) | – | > 100 µM (inactive) | > 100 µM (inactive) | > 100 µM (inactive) | > 100 µM (inactive) | > 100 µM (inactive) | > 100 µM (inactive) | > 100 µM (inactive) | > 100 µM (inactive) | > 100 µM (inactive) | > 100 µM (inactive) | > 100 µM (inactive) | – | – | – | –
Cc1c2n(c3ccccc13)CC1C2N(C)OC1(C)C (configuration not stated) | > 100 µM (inactive) | > 100 µM (inactive) | > 10 µM (inactive) | – | > 100 µM (inactive) | > 100 µM (inactive) | 83.8 µM (inactive) | – | > 100 µM (inactive) | > 100 µM (inactive) | – | > 100 µM (inactive) | > 100 µM (inactive) | > 100 µM (inactive) | > 100 µM (inactive) | > 100 µM (inactive) | – | – | – | –
CCOC(=O)C1(c2ccccc2)CCCNCC1 (configuration not stated) | > 100 µM (inactive) | – | > 100 µM (inactive) | 98.4 µM (inactive) | > 100 µM (inactive) | 58.9 µM (inactive) | 32.4 µM (inactive) | > 100 µM (inactive) | > 100 µM (inactive) | > 100 µM (inactive) | > 100 µM (inactive) | > 100 µM (inactive) | 68.1 µM (inactive) | 39.4 µM (inactive) | > 100 µM (inactive) | 33.1 µM (inactive) | – | – | – | –
CCOC(=O)C(=O)Nc1c(C(C)C)cccc1C(C)C | > 100 µM (inactive) | > 100 µM (inactive) | > 100 µM (inactive) | > 100 µM (inactive) | > 100 µM (inactive) | > 100 µM (inactive) | > 100 µM (inactive) | > 100 µM (inactive) | > 100 µM (inactive) | > 100 µM (inactive) | > 100 µM (inactive) | > 100 µM (inactive) | > 100 µM (inactive) | > 100 µM (inactive) | > 100 µM (inactive) | > 100 µM (inactive) | – | – | – | –
CCC1C(=O)OCc2c1cc1n(c2=O)CCC12OCCO2 (configuration not stated) | > 100 µM (inactive) | > 100 µM (inactive) | > 100 µM (inactive) | > 100 µM (inactive) | > 100 µM (inactive) | > 100 µM (inactive) | > 100 µM (inactive) | > 100 µM (inactive) | > 100 µM (inactive) | > 100 µM (inactive) | – | > 100 µM (inactive) | > 100 µM (inactive) | > 100 µM (inactive) | > 100 µM (inactive) | > 100 µM (inactive) | – | – | – | –
O=[N+]([O-])c1cc(I)cc(/C=N/NS(=O)(=O)c2ccc(F)cc2)c1O | 18 µM (inactive) | 27.1 µM (inactive) | 22.4 µM (inactive) | 28.4 µM (inactive) | 18.3 µM (inactive) | 22.9 µM (inactive) | 26.2 µM (inactive) | 32.4 µM (inactive) | 23.3 µM (inactive) | – | 27 µM (inactive) | 33.2 µM (inactive) | 25.2 µM (inactive) | 23.6 µM (inactive) | 31.2 µM (inactive) | 22.3 µM (inactive) | – | – | – | –
CC(=O)CCn1ncc(Cl)c(Cl)c1=O | 14.2 µM (inactive) | 22.2 µM (inactive) | – | 8.39 µM (inactive) | – | 14.5 µM (inactive) | 19.7 µM (inactive) | 19 µM (inactive) | 19.8 µM (inactive) | 16.7 µM (inactive) | 17.3 µM (inactive) | 19.1 µM (inactive) | 16.5 µM (inactive) | 23.2 µM (inactive) | 4.92 µM (inactive) | 9.59 µM (inactive) | – | – | – | –
Cc1ccc(S(=O)(=O)C2c3nc4ccccc4cc3-c3nc4ccccc4nc32)cc1 (configuration not stated) | > 100 µM (inactive) | > 100 µM (inactive) | > 100 µM (inactive) | > 100 µM (inactive) | > 100 µM (inactive) | > 100 µM (inactive) | > 100 µM (inactive) | > 100 µM (inactive) | 67 µM (inactive) | – | – | – | > 100 µM (inactive) | > 100 µM (inactive) | > 100 µM (inactive) | > 100 µM (inactive) | – | – | – | –
O=S1(=O)CSc2ccc3ccccc3c2-c2c1ccc1ccccc21 | – | > 100 µM (inactive) | > 100 µM (inactive) | > 100 µM (inactive) | > 100 µM (inactive) | > 100 µM (inactive) | > 100 µM (inactive) | > 100 µM (inactive) | > 100 µM (inactive) | – | > 100 µM (inactive) | > 100 µM (inactive) | > 100 µM (inactive) | > 100 µM (inactive) | > 100 µM (inactive) | > 100 µM (inactive) | – | – | – | –
CN(C)CC1CCCC/C1=N/O (configuration not stated) | > 100 µM (inactive) | > 100 µM (inactive) | > 100 µM (inactive) | > 100 µM (inactive) | > 100 µM (inactive) | > 100 µM (inactive) | > 100 µM (inactive) | > 100 µM (inactive) | > 100 µM (inactive) | > 100 µM (inactive) | > 100 µM (inactive) | > 100 µM (inactive) | > 100 µM (inactive) | > 100 µM (inactive) | > 100 µM (inactive) | – | – | – | – | –
COc1ccc(Nc2nnc(-c3nsc4ccccc34)s2)cc1 | 78.7 µM (inactive) | 31.8 µM (inactive) | > 47.1 µM (inactive) | > 70.1 µM (inactive) | 63.7 µM (inactive) | 8.55 µM (inactive) | 8.26 µM (inactive) | > 72.9 µM (inactive) | > 100 µM (inactive) | 9.46 µM (inactive) | 26.2 µM (inactive) | 10.8 µM (inactive) | > 100 µM (inactive) | 49.8 µM (inactive) | > 100 µM (inactive) | 39.9 µM (inactive) | 76 µM (inactive) | > 100 µM (inactive) | > 100 µM (inactive) | > 100 µM (inactive)
O=[N+]([O-])c1ccc(-c2csc(=[N+]3CCCCC3)s2)cc1 | 24.9 µM (inactive) | 19.8 µM (inactive) | 2.54 µM (inactive) | > 53.2 µM (inactive) | 2.26 µM (inactive) | 28.3 µM (inactive) | 3.1 µM (inactive) | 13.2 µM (inactive) | 44.1 µM (inactive) | – | > 69.2 µM (inactive) | 2.71 µM (inactive) | 2.08 µM (inactive) | 3.48 µM (inactive) | 10.7 µM (inactive) | 11.1 µM (inactive) | – | – | – | –
CN1CCn2c(Br)ccc2C1=O | > 100 µM (inactive) | > 100 µM (inactive) | > 100 µM (inactive) | > 100 µM (inactive) | > 100 µM (inactive) | > 100 µM (inactive) | > 100 µM (inactive) | > 100 µM (inactive) | > 100 µM (inactive) | > 100 µM (inactive) | > 100 µM (inactive) | > 100 µM (inactive) | > 100 µM (inactive) | > 100 µM (inactive) | > 100 µM (inactive) | > 100 µM (inactive) | – | – | – | –
O=C(Cc1nc2ccccc2c(=O)n1-c1ccccc1Cl)c1ccncc1 | > 100 µM (inactive) | > 100 µM (inactive) | > 100 µM (inactive) | 37.6 µM (inactive) | > 100 µM (inactive) | > 100 µM (inactive) | > 100 µM (inactive) | > 100 µM (inactive) | > 100 µM (inactive) | > 100 µM (inactive) | > 100 µM (inactive) | > 100 µM (inactive) | > 100 µM (inactive) | > 100 µM (inactive) | > 100 µM (inactive) | – | – | – | – | –
CC(C)(C)CC(C)(C)c1ccc(OCCOCC[N+](C)(C)Cc2ccccc2)cc1 [BENZETHONIUM CHLORIDE] | 2.06 µM (inactive) | – | 1.54 µM (inactive) | 0.883 µM (active) | 1.49 µM (inactive) | 1.71 µM (inactive) | 8.93 µM (inactive) | 2.69 µM (inactive) | 1.63 µM (inactive) | 5.19 µM (inactive) | 3.11 µM (inactive) | 11 µM (inactive) | 1.45 µM (inactive) | 3.19 µM (inactive) | 1.53 µM (inactive) | 2.03 µM (inactive) | – | – | – | –
